Measured values taken from publication PMC5920098, “Identification of the allosteric P2X7 receptor antagonist [^11C]SMW139 as a PET tracer of microglial activation” (Scientific Reports, 2018).
“And” between values parts separate entries of the source, which are not always exact repeats. Equal values may be shown once.

Key:
[1] = Plasma metabolite analysis in female rAAV-hP2X7R rats; type: in vivo; conditions: female rat
Procedure: In vivo stability of analogues [^11C]1–3 and [^11C]SMW139 was assessed in healthy male Wistar rats at 15 and 45 minutes after injection of 30–40 MBq of formulated tracer. […] Results obtained in plasma correspond with previously reported stability results in rat liver microsomes. A higher level of intact tracer was found in brain (Table 3) for [^11C]1 and [^11C]SMW139 compared with [^11C]2 and [^11C]3. Despite optimisation of the extraction method, the percentage of total radioactivity that could be extracted from brain homogenates was not optimal for all four compounds (59 ± 6% for [^11C]1; 58 ± 7% for [^11C]2; 61 ± 4% for [^11C]3; 62 ± 3% for [^11C]SMW139). Therefore, based on its highest stability in plasma in vivo, [^11C]SMW139 was selected for further in vivo studies. As imaging studies were performed in female rats, plasma metabolites were also determined in two female rats, and no differences were found between plasma metabolism of [^11C]SMW139 in male and female rats (Table S1; Supplementary Information). […]
(§1) Ex vivo metabolite analysis
(§2) Healthy male and female Wistar rats (254-440 g) were injected with 30-40 MBq (at start of experiment) of formulated tracer in the tail vein under isoflurane anaesthesia. Rats were sacrificed at 15 and 45 min (n = 3 per time point). Blood samples were obtained and the brain was excised. Blood samples were collected in heparin tubes (BD Vacutainer NH 119 I.U., 7 mL, BD Vacutainer Systems, Plymouth, UK) and centrifuged at 4,000 rpm for 5 min at 4 °C (Hettich Universal 32, Andreas Hettich GmbH & Co.KG, Tuttlingen, Germany). Plasma supernatant was separated from blood cells and loaded onto a tC18 Sep-Pak (Waters, Milford, MA, USA), followed by washing with 3 mL of water to obtain the polar fraction. The non-polar fraction was then eluted with 2 mL of MeOH and 1 mL of water and further analysed by HPLC. The brain was put in a falcon tube containing 4 mL MeCN/H2O (50:50 v/v) and homogenised with a disperser (IKA T18 B Ultra-Turrax, IKA®-Werke GmbH & Co.KG, Staufen, Germany) before centrifugation (5 min, 4,000 rpm, 20 °C, Hettich Universal 32). Supernatant was separated from brain precipitate and analysed by HPLC. Analytical HPLC was performed with Dionex (Sunnyvale, CA, USA) UltiMate 3000 HPLC equipment with Chromeleon software (version 6.8) on a Gemini C18 5-µm (10 x 250 mm) column (Phenomenex, Torrance, CA, USA) with gradient and a mixture of MeCN (A) and 0.1% DIPA in water (B) as eluent according to the following scheme: 0 min, […]
(§3) 0.25 mL·min-1. All separate fractions were counted for radioactivity in a Wizard Gammacounter 1470 or 2480 (Wallac/PerkinElmer, Waltham, MA, USA).
Table S1: Metabolic profile of [11C]SMW139 in female rAAV-hP2X7R rats. […]

[2] = LogDoct,7.4 by shake-flask method (1-octanol / 0.2 M phosphate buffer pH 7.4); type: physicochemical; conditions: mean ± SD, read-out: LogDoct,7.4 (n = 3)
Procedure: The LogDoct,7.4 of analogues [^11C]1–3 and [^11C]SMW139 ([^11C]4) was determined using the shake-flask method (partitioning between 1-octanol and 0.2 M phosphate buffer (pH 7.4)). Determined LogDoct,7.4 values (Table 1) show the same trend as LogD values reported by Wilkinson et al.[10].
LogDoct,7.4 of [^11C]1–3 and [^11C]SMW139 was determined by the shake-flask method as described in the Supplementary Information.
Analytical HPLC chromatogram of [11C]SMW139 formulation (Platinum C18, MeCN/H2O/TFA 45:55:0.1, 1 […]
Determination of LogDoct,7.4
The distribution of radiolabelled compound between 1-octanol and 0.2 M phosphate buffer (pH = 7.4) was measured at room temperature. Briefly, 1 mL of a 20 MBq·mL-1 solution of radiolabelled compound in 0.2 M phosphate buffer (pH = 7.4) was mixed with 1 mL of 1-octanol for 1 min using a vortex mixer. After a settling period of 30 min, three samples of 100 μL were taken from both layers.
All samples were counted for radioactivity in a Wallac Universal Gammacounter 1282 (PerkinElmer, Waltham, MA, USA). The LogDoct,7.4 value was calculated according to LogDoct,7.4 = 10Log(Aoct/Abuffer), where Aoct and Abuffer represent average radioactivity counts of the three 1-octanol and the three […]
(1 picture or pasted object on this page, not shown here)

[3] = Ex vivo metabolite analysis (plasma and brain) in healthy male Wistar rats; parameters: species or system rat
Procedure: In vivo stability of analogues [^11C]1–3 and [^11C]SMW139 was assessed in healthy male Wistar rats at 15 and 45 minutes after injection of 30–40 MBq of formulated tracer. […] Results obtained in plasma correspond with previously reported stability results in rat liver microsomes. A higher level of intact tracer was found in brain (Table 3) for [^11C]1 and [^11C]SMW139 compared with [^11C]2 and [^11C]3. Despite optimisation of the extraction method, the percentage of total radioactivity that could be extracted from brain homogenates was not optimal for all four compounds (59 ± 6% for [^11C]1; 58 ± 7% for [^11C]2; 61 ± 4% for [^11C]3; 62 ± 3% for [^11C]SMW139). Therefore, based on its highest stability in plasma in vivo, [^11C]SMW139 was selected for further in vivo studies. As imaging studies were performed in female rats, plasma metabolites were also determined in two female rats, and no differences were found between plasma metabolism of [^11C]SMW139 in male and female rats (Table S1; Supplementary Information).
For each of the carbon-11 labelled benzamide analogues [^11C]1–3 and [^11C]SMW139, a biodistribution study and metabolite analysis in healthy male Wistar rats was performed, as described in detail in the Supplementary Information. Briefly, tracer distribution in blood, brain, and peripheral organs was measured at 5, 15, 30 and 45 min after intravenous injection of 13–23 MBq of formulated tracer. Metabolite analysis was performed at 15 and 45 min after intravenous injection of 30–40 MBq of formulated tracer in both blood plasma and brain. […]
as §1, §2, §3

With [11CH3]Oc1ccc(Cl)c(C(=O)NCC23CC4(F)CC(F)(CC(F)(C4)C2)C3)c1 [[^11C]SMW139] the “Intact tracer (%)” value ([1]; Rat 1, 15 min) was 78%, the “Intact tracer (%)” value ([1]; Rat 1, 45 min) was 50% and the “Intact tracer (%)” value ([1]; Rat 2, 15 min) was 63%. The “Intact tracer (%)” value ([1]; Rat 2, 45 min) was 32%, the logD [2] was 2.7 ± 0.01 and the “Intact tracer (%)” value ([3]; rat brain, 15 min p.i.) was 79 ± 1%. The “Intact tracer (%)” value ([3]; rat brain, 45 min p.i.) was 66 ± 2%, the “Intact tracer (%)” value ([3]; rat plasma, 15 min p.i., male Wistar rats) was 60 ± 1% and the “Intact tracer (%)” value ([3]; rat plasma, 45 min p.i., male Wistar rats) was 42% and 42 ± 2%.
